Legend:
rat TRPV3 = target: T1, rat TRPV3 (Rattus norvegicus, UniProt Q4QYD9); assay: Elevation of intracellular Ca2+ (Fluo-4) in HEK-293 cells stably transfected with rat TRPV3; type: cell-based; conditions: TRPV3, against reference agonist thymol 100 μM
T1 construct: expressed in transfected cells; host or cells: HEK-293
T1 sequence (Q4QYD9 1-791): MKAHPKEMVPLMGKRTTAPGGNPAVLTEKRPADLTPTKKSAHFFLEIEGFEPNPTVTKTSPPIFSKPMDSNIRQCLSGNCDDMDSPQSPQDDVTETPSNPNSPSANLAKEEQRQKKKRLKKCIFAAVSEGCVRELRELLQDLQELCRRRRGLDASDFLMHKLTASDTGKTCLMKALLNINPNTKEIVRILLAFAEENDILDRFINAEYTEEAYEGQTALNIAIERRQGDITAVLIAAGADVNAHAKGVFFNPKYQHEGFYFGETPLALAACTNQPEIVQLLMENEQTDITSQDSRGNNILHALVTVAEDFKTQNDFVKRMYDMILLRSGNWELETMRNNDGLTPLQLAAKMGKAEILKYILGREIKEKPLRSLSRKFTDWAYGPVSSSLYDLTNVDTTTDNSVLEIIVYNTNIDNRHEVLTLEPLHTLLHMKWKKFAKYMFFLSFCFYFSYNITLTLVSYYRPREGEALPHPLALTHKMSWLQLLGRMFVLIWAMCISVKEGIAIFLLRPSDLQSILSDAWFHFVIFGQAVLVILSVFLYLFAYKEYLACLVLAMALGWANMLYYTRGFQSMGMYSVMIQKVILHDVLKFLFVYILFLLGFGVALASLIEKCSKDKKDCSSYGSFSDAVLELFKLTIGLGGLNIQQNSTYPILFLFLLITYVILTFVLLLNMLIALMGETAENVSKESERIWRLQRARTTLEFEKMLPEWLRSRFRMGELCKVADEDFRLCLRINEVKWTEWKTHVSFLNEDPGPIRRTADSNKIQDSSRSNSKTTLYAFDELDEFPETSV
Experimental: (§1) Assay of rat TRPA1, TRPV2, TRPV3, TRPV4, TRPM8 or human TRPV1 mediated elevation of intracellular Ca^2+ in transfected HEK-293 cells are been performed as described. Briefly, human embryonic kidney (HEK-293) cells, stably transfected with rat TRPA1, TRPV2, TRPV3, TRPV4, TRPM8 or human TRPV1 (selected by Geneticin 600 μg mL^−1) or not transfected, were cultured in EMEM + 2 mM Glutamine + 1% Non-Essential Amino Acids (NEAA) + 10% FBS and maintained at 37 °C with 5% CO2. Stable transfections were checked by quantitative real-time polymerase chain reaction (PCR), quantitative real-time PCR was performed by an iCycler-iQ (Bio-Rad, Hercules, CA, USA) in a 20 μL reaction mixture containing the following: 10 μL iQ SYBR Green Supermix 2X (Bio-Rad), 20 ng of cDNA (calculated on the basis of the retro-transcribed RNA), and 330 nM for each primer. […] The day of the experiment the cells were loaded with Fluo-4 AM (4 μM in DMSO containing 0.02% Pluronic F-127) for 1 h in the dark at room temperature, rinsed and resuspended in Tyrode’s solution (145 mM NaCl, 2.5 mM KCl, 1.5 mM CaCl2, 1.2 mM MgCl2, 10 mM D-glucose, and 10 mM HEPES, pH 7.4), finally transferred to a quartz cuvette of a spectrofluorimeter (Perkin-Elmer LS50B; λEX = 488 nm, λEM = 516 nm) equipped with PTP-1 Fluorescence Peltier System (PerkinElmer Life and Analytical Sciences, Waltham, MA, USA) under continuous stirring. […]

[1] = test system: Amyotrophic Lateral Sclerosis (ALS) transgenic model; design: method as in PMID 26075221; conditions: cited from earlier work
rat TRPM8 = target: T2, rat TRPM8 (Rattus norvegicus, UniProt Q8R455); assay: Elevation of intracellular Ca2+ (Fluo-4) in HEK-293 cells stably transfected with rat TRPM8; type: cell-based
T2 construct: expressed in transfected cells; host or cells: HEK-293
Experimental: as §1

rat TRPV2 = target: T3, rat TRPV2 (Rattus norvegicus, UniProt Q9WUD2); assay: Elevation of intracellular Ca2+ (Fluo-4) in HEK-293 cells stably transfected with rat TRPV2; type: cell-based
T3 construct: expressed in transfected cells; host or cells: HEK-293
T3 sequence (Q9WUD2 1-761): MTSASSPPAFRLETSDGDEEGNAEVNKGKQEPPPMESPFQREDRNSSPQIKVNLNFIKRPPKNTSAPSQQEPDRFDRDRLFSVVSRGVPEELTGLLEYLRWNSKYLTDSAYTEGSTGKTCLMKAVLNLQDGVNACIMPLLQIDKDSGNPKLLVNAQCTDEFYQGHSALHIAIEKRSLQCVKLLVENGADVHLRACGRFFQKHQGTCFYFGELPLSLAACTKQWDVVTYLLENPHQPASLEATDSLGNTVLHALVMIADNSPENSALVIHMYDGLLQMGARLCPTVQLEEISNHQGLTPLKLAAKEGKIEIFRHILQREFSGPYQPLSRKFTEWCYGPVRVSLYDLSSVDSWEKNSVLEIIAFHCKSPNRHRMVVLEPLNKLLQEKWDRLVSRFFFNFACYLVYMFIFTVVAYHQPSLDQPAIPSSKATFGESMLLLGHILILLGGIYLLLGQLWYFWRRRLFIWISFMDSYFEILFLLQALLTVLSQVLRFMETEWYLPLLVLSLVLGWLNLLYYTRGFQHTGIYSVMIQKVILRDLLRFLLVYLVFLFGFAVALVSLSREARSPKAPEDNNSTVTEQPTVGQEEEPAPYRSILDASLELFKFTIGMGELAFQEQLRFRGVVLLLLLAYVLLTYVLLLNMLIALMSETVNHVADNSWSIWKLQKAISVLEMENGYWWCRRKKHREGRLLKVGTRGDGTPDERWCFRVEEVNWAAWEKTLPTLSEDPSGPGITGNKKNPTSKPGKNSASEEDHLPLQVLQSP
Experimental: as §1

[2] = test system: not transfected HEK-293 cells; assay: Effect on [Ca2+]i in not transfected HEK-293 cells (baseline); type: cell-based, human
Experimental: Compound and extracts’ effects on intracellular Ca^2+ concentration ([Ca^2+]i) were determined using the selective intracellular fluorescent probe for Ca^2+ Fluo-4. Assay of rat TRPA1, TRPV2, TRPV3, TRPV4, TRPM8 or human TRPV1 mediated elevation of intracellular Ca^2+ in transfected HEK-293 cells are been performed as described. Briefly, human embryonic kidney (HEK-293) cells, stably transfected with rat TRPA1, TRPV2, TRPV3, TRPV4, TRPM8 or human TRPV1 (selected by Geneticin 600 μg mL^−1) or not transfected, were cultured in EMEM + 2 mM Glutamine + 1% Non-Essential Amino Acids (NEAA) + 10% FBS and maintained at 37 °C with 5% CO2. Stable transfections were checked by quantitative real-time polymerase chain reaction (PCR), quantitative real-time PCR was performed by an iCycler-iQ (Bio-Rad, Hercules, CA, USA) in a 20 μL reaction mixture containing the following: 10 μL iQ SYBR Green Supermix 2X (Bio-Rad), 20 ng of cDNA (calculated on the basis of the retro-transcribed RNA), and 330 nM for each primer. […] Cell fluorescence before and after the addition of various concentrations of test compounds and extracts were measured normalizing the effects against the response to ionomycin (4 µM). […] The potency of the compounds (EC50 values) are determined as the concentration required to produce half-maximal increases in [Ca^2+]i. […]

rat TRPA1 = target: T4, rat TRPA1 (Rattus norvegicus, UniProt Q6RI86); assay: Elevation of intracellular Ca2+ (Fluo-4) in HEK-293 cells stably transfected with rat TRPA1; agonist and antagonist/desensitizing behaviour; type: cell-based
T4 construct: expressed in transfected cells; host or cells: HEK-293
Experimental: Assay of rat TRPA1, TRPV2, TRPV3, TRPV4, TRPM8 or human TRPV1 mediated elevation of intracellular Ca^2+ in transfected HEK-293 cells are been performed as described. Briefly, human embryonic kidney (HEK-293) cells, stably transfected with rat TRPA1, TRPV2, TRPV3, TRPV4, TRPM8 or human TRPV1 (selected by Geneticin 600 μg mL^−1) or not transfected, were cultured in EMEM + 2 mM Glutamine + 1% Non-Essential Amino Acids (NEAA) + 10% FBS and maintained at 37 °C with 5% CO2. Stable transfections were checked by quantitative real-time polymerase chain reaction (PCR), quantitative real-time PCR was performed by an iCycler-iQ (Bio-Rad, Hercules, CA, USA) in a 20 μL reaction mixture containing the following: 10 μL iQ SYBR Green Supermix 2X (Bio-Rad), 20 ng of cDNA (calculated on the basis of the retro-transcribed RNA), and 330 nM for each primer. Optimized primers for SYBR Green analysis (and relative TaOpt) and optimum annealing temperatures were designed by Allele-Id software version 7.0 (Biosoft International, Palo Alto, CA, USA) and were synthesized (HPLC-purification grade) by MWG-Biotech AG (Ebersberg, Germany). Assays were performed in quadruplicate (maximal ΔCt of replicate samples, <0.5). Relative expression analysis, correct for PCR efficiency and normalized with respect to reference genes β-actin and glyceraldehyde 3-phosphate dehydrogenase, was performed by GENEX software (Bio-Rad). […] The day of the experiment the cells were loaded with Fluo-4 AM (4 μM in DMSO containing 0.02% Pluronic F-127) for 1 h in the dark at room temperature, rinsed and resuspended in Tyrode’s solution (145 mM NaCl, 2.5 mM KCl, 1.5 mM CaCl2, 1.2 mM MgCl2, 10 mM D-glucose, and 10 mM HEPES, pH 7.4), finally transferred to a quartz cuvette of a spectrofluorimeter (Perkin-Elmer LS50B; λEX = 488 nm, λEM = 516 nm) equipped with PTP-1 Fluorescence Peltier System (PerkinElmer Life and Analytical Sciences, Waltham, MA, USA) under continuous stirring. Cell fluorescence before and after the addition of various concentrations of test compounds and extracts were measured normalizing the effects against the response to ionomycin (4 µM). The values of the effect on [Ca^2+]i in HEK-293 cells not transfected are used as baseline and subtracted from the values obtained from transfected cells. […] The potency of the compounds (EC50 values) are determined as the concentration required to produce half-maximal increases in [Ca^2+]i. In TRPV3 assay TRPV3-expressing HEK293 cells were first sensitized with the structurally unrelated agonist 2-aminoethoxydiphenyl borate (100 μM). Antagonist/desensitizing behaviour is evaluated against the agonist of the TRP analyzed by adding the compounds directly in the quartz cuvette 5 min before stimulation of cells with the agonist. […] In order to assess functional antagonism of TRPA1 channels, AP18, 4-(4-chlorophenyl)-3-methyl-3-buten-2-one oxime […] Dose-response curve fitting (sigmoidal dose-response variable slope) and parameter estimation were performed with Graph-Pad Prism8® (GraphPad Software Inc., San Diego, CA, USA). All determinations were performed at least in triplicate.

rat TRPV4 = target: T5, rat TRPV4 (Rattus norvegicus, UniProt Q9ERZ8); assay: Elevation of intracellular Ca2+ (Fluo-4) in HEK-293 cells stably transfected with rat TRPV4; type: cell-based
T5 construct: expressed in transfected cells; host or cells: HEK-293
Experimental: as §1

human TRPV1 = target: T6, human TRPV1 (Homo sapiens, UniProt Q8NER1); assay: Elevation of intracellular Ca2+ (Fluo-4) in HEK-293 cells stably transfected with human TRPV1; type: cell-based
T6 construct: expressed in transfected cells; host or cells: HEK-293
Experimental: Assay of rat TRPA1, TRPV2, TRPV3, TRPV4, TRPM8 or human TRPV1 mediated elevation of intracellular Ca^2+ in transfected HEK-293 cells are been performed as described. Briefly, human embryonic kidney (HEK-293) cells, stably transfected with rat TRPA1, TRPV2, TRPV3, TRPV4, TRPM8 or human TRPV1 (selected by Geneticin 600 μg mL^−1) or not transfected, were cultured in EMEM + 2 mM Glutamine + 1% Non-Essential Amino Acids (NEAA) + 10% FBS and maintained at 37 °C with 5% CO2. Stable transfections were checked by quantitative real-time polymerase chain reaction (PCR), quantitative real-time PCR was performed by an iCycler-iQ (Bio-Rad, Hercules, CA, USA) in a 20 μL reaction mixture containing the following: 10 μL iQ SYBR Green Supermix 2X (Bio-Rad), 20 ng of cDNA (calculated on the basis of the retro-transcribed RNA), and 330 nM for each primer. Optimized primers for SYBR Green analysis (and relative TaOpt) and optimum annealing temperatures were designed by Allele-Id software version 7.0 (Biosoft International, Palo Alto, CA, USA) and were synthesized (HPLC-purification grade) by MWG-Biotech AG (Ebersberg, Germany). Assays were performed in quadruplicate (maximal ΔCt of replicate samples, <0.5). Relative expression analysis, correct for PCR efficiency and normalized with respect to reference genes β-actin and glyceraldehyde 3-phosphate dehydrogenase, was performed by GENEX software (Bio-Rad). […] The day of the experiment the cells were loaded with Fluo-4 AM (4 μM in DMSO containing 0.02% Pluronic F-127) for 1 h in the dark at room temperature, rinsed and resuspended in Tyrode’s solution (145 mM NaCl, 2.5 mM KCl, 1.5 mM CaCl2, 1.2 mM MgCl2, 10 mM D-glucose, and 10 mM HEPES, pH 7.4), finally transferred to a quartz cuvette of a spectrofluorimeter (Perkin-Elmer LS50B; λEX = 488 nm, λEM = 516 nm) equipped with PTP-1 Fluorescence Peltier System (PerkinElmer Life and Analytical Sciences, Waltham, MA, USA) under continuous stirring. Cell fluorescence before and after the addition of various concentrations of test compounds and extracts were measured normalizing the effects against the response to ionomycin (4 µM). The values of the effect on [Ca^2+]i in HEK-293 cells not transfected are used as baseline and subtracted from the values obtained from transfected cells. […] The potency of the compounds (EC50 values) are determined as the concentration required to produce half-maximal increases in [Ca^2+]i. In TRPV3 assay TRPV3-expressing HEK293 cells were first sensitized with the structurally unrelated agonist 2-aminoethoxydiphenyl borate (100 μM). Antagonist/desensitizing behaviour is evaluated against the agonist of the TRP analyzed by adding the compounds directly in the quartz cuvette 5 min before stimulation of cells with the agonist. […]

T4 sequence (Q6RI86 whole entry): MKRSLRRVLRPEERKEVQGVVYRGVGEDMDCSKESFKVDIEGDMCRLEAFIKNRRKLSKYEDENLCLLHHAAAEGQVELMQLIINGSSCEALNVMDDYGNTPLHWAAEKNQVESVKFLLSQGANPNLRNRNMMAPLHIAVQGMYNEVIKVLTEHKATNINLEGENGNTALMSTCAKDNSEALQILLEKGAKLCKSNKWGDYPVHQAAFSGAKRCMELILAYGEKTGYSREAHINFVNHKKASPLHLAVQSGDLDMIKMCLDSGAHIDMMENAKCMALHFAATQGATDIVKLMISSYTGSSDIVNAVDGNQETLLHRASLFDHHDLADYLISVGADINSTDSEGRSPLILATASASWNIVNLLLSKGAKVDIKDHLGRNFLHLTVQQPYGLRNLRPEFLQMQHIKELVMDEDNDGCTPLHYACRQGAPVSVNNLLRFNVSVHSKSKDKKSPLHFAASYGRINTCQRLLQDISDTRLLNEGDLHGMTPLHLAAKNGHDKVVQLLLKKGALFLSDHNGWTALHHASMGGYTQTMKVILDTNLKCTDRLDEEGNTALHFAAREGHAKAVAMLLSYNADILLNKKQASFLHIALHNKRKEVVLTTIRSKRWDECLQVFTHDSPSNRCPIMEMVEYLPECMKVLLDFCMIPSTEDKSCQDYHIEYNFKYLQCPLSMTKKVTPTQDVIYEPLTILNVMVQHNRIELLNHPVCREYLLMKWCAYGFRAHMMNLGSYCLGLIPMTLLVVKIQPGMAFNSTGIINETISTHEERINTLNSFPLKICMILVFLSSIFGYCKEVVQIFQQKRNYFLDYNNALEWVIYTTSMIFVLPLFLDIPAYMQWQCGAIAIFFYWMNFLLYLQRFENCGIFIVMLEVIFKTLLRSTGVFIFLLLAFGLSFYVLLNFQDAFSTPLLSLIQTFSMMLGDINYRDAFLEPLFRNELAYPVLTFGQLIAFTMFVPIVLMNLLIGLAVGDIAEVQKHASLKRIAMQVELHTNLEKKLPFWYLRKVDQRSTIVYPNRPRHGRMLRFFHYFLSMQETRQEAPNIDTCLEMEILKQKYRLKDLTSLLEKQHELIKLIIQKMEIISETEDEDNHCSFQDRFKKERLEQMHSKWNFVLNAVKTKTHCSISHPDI
T6 sequence (Q8NER1 whole entry): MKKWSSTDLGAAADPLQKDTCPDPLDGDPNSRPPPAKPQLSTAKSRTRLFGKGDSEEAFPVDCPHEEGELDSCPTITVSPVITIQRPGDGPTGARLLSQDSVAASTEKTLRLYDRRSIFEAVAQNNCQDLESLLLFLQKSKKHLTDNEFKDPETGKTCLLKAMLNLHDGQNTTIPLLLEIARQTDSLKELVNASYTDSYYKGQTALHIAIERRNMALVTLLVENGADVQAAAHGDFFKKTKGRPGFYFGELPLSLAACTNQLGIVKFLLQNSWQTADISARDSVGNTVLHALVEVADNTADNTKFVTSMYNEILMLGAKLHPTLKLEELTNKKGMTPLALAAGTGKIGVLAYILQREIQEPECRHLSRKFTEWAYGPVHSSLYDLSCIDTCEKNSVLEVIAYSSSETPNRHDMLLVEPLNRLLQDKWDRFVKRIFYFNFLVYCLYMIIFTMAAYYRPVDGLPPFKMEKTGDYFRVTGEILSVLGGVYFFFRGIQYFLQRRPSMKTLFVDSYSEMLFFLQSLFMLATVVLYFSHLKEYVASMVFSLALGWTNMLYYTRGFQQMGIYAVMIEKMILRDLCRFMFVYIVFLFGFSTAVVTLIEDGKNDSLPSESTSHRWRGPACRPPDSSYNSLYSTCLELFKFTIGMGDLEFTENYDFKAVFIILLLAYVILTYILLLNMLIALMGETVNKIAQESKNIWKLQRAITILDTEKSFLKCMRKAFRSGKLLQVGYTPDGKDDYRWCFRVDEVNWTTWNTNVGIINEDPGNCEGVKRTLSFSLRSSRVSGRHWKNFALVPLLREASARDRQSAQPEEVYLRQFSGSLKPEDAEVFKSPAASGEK
T5 sequence (Q9ERZ8 whole entry): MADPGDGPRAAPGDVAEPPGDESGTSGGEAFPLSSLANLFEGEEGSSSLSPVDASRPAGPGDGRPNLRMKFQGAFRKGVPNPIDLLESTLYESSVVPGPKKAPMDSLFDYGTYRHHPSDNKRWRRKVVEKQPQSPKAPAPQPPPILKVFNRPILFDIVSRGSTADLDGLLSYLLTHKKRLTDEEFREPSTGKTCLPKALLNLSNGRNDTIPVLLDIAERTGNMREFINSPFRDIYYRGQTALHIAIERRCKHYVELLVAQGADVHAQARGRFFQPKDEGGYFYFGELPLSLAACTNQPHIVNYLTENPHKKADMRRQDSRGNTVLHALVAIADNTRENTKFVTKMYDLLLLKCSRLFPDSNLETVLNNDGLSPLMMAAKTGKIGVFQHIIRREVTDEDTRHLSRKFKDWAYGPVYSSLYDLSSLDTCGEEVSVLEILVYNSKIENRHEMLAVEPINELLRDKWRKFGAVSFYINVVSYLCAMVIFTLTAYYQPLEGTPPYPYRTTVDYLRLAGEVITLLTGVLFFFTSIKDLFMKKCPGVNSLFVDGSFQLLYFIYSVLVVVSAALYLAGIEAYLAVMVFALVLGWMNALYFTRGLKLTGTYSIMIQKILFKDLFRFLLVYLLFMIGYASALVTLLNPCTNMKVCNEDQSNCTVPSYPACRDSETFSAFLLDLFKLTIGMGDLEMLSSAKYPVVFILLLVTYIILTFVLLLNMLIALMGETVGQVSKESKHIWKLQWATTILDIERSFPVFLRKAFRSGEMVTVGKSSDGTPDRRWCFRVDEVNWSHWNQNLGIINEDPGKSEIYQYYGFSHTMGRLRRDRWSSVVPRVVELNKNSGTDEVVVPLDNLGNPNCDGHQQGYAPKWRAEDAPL
T2 sequence (Q8R455 whole entry): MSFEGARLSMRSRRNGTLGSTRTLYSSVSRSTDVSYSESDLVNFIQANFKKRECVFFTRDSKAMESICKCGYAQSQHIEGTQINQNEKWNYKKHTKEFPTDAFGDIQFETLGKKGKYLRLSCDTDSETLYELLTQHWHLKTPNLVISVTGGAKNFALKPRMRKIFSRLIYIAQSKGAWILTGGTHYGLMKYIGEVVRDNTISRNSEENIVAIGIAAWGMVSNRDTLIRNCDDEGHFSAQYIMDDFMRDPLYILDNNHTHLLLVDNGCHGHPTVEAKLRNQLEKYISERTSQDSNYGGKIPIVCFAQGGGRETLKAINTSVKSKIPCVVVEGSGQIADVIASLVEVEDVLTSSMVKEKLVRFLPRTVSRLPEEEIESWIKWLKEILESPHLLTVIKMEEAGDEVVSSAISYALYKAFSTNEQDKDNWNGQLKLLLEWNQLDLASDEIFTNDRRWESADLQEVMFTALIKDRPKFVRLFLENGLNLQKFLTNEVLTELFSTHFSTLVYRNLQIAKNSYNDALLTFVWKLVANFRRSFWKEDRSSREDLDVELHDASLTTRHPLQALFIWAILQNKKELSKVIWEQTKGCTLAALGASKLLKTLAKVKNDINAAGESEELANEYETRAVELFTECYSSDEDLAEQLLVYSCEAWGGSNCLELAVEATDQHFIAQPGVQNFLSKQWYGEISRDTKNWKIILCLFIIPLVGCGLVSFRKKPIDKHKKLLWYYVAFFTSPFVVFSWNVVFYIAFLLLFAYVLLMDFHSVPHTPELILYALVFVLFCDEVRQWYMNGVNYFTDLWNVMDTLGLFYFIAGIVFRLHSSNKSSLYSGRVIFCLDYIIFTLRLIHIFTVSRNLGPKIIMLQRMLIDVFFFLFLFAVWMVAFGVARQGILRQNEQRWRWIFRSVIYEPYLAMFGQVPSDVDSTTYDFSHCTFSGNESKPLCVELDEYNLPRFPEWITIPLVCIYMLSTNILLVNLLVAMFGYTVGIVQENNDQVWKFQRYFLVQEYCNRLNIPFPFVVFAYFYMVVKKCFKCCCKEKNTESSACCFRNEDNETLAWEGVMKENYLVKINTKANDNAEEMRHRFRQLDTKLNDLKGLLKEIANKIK

SMILES: C[C@@H]1O[C@@H](Oc2ccc(CN=C=S)cc2)[C@H](O)[C@H](O)[C@H]1O [Moringin, 4-[(α-L-rhamnosyloxy)benzyl]isothiocyanate]
- IC50 (rat TRPV3): > 100 µM
- Delay of the disease onset [1]: about two weeks
- IC50 (rat TRPM8): > 100 µM
- IC50 (rat TRPV2): > 100 µM
- Increase of [Ca2+]i in not transfected HEK-293 cells, % of the response in rTRPA1 HEK-293 cells [2]: < 10%
- EC50 (rat TRPA1): 3.14 ± 0.16 µM
- IC50 (rat TRPA1): 3.6 ± 0.05 µM
- Effect of AITC 100 μM administered after pre-incubation with moringin (rat TRPA1; TRPA1-HEK293 cells, pre-incubation with moringin 50 μM): completely inhibited
- Efficacy (% AITC 100 µM) (rat TRPA1; rTRPA1-HEK-293, percentage of the effect on [Ca2+]i of AITC 100 µM): 102.6 ± 1.1%
- IC50 (rat TRPV4): > 100 µM
- EC50 (human TRPV1): 20.4 ± 1.3 µM
- IC50 (human TRPV1): > 50 µM
- Efficacy (% Ionomycin 4 µM) (human TRPV1; TRPV1): 46.8 ± 0.7%
- Potency EC50 (human TRPV1; TRPV1): weak
